Measurements from patent US8268823B2, “Medical use of triazine derivatives” (University of Greenwich, priority 2006, dated 2012).
“And” between values parts separate entries of the source, which are not always exact repeats. Equal entries are not always repeated. Structures can show the parent of a compound that is named as a salt. Where two headings read alike, the source gives them in different places.

Legend:
[1] = tested on: 0.4 mm slices of rat hippocampus; test: hippocampal slice assay: ATP after iodoacetate metabolic insult; settings: for Emax: read-out: Max Protection (% v TTX)
sodium channel [2] = assay type: binding, rat
sodium channel [3] = test: veratrine-evoked uptake of [14C]guanidine into rat forebrain synaptosomes ([14C]guanidine flux); assay type: biochemical
Experimental: The screening strategy is designed to select compounds with appropriate sodium channel blocking activity and low side effect liability. To this end all compounds are processed through the primary sodium channel assay (veratrine-evoked uptake of [^14C]guanidine into rat forebrain synaptosomes) and IC50 values computed from generated concentration-effect curves.
Synaptosomes (heavy and light mitochondrial fraction containing synaptosomes) were prepared by transferring the forebrain (of known wet weight) to a glass Potter vessel to which 9 volumes ice-cold 0.25M sucrose had been added and homogenising, using a teflon pestle, by 8 ‘up and down strokes’ of a Braun Potter S motor driven homogeniser set to 900 rpm. The resulting homogenate was centrifuged at 1036×g at 4° for 10 min and the supernatant collected. The remaining pellet was resuspended, as above, in fresh ice-cold 0.25M sucrose and the centrifugation step repeated. The supernatant fractions were pooled and centrifuged at 40,000×g (average) at 4° for 15 min and the resulting pellet resuspended in the appropriate assay buffer at a concentration of 20-25 mg wet weight per ml appropriate assay buffer.
Both assays were carried out using 14 ml polypropylene test tubes to which a range of concentrations of the compounds under test were added.
Compounds under test were pre-incubated for 10 min at 30° in incubation buffer (50 mM pH 7.4 HEPES (adjusted to pH 7.4 with Tris base), 130 mM choline chloride, 5.5 mM D-glucose, 0.8 mm MgSO4 and 5 mM KCl) containing 7.5 mg original wet weight of tissue and 100 μg veratrine HCl in a final volume of 0.5 ml. […] A further 2×5 ml of ice-cold wash buffer was added to each tube and the vacuum filtration step repeated. The GF/C glass fibre filters were transferred to minivials and 4 ml Picofluor^40 liquid scintillant added using a Brandel™ deposit/dispense system. Radioactivity was measured using a Beckman Liquid Scintillation Counter.
(§1) Data are presented as mean±sem of number of experiments indicated in brackets.

hERG potassium channel [4] = molecular target: T1, hERG potassium channel (Homo sapiens, UniProt Q12809); test: inhibition of binding of [3H]astemizole to cell membranes expressing hERG
hERG potassium channel [5] = molecular target: T1, hERG potassium channel; test: in vitro
[6] = molecular target: T2, DiHydroFolate Reductase (DHFR) (Rattus norvegicus, UniProt Q920D2); test: inhibition of binding of [3H]methotrexate to rat liver homogenate supernatant; settings: for IC50: rat liver supernatant
T2 construct: from tissue; host or cells: rat liver homogenate supernatant (47,500 x g)
T2 sequence (Q920D2 1-187): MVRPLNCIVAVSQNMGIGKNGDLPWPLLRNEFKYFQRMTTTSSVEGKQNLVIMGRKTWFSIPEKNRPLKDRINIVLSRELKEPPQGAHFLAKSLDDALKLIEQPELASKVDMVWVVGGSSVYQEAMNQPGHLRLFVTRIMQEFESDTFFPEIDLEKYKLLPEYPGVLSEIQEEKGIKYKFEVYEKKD
Experimental: All steps were carried out at 4° (or on ice). Freshly dissected rat liver was dissected into 0.25M ice-cold Sucrose and subsequently homogenised (U-turrax) in 50 mM pH 6.0 phosphate buffer (10 ml/g tissue) containing 15 mM Dithiothreitol. The resulting homogenate was centrifuged @ 47,500×g for 20 min and supernatant (filtered through cotton wool to remove fatty lumps) stored @-80° before use (Rothenberg et al).
The binding reaction was stopped by the addition of 50 μl of a charcoal suspension (consisting of charcoal, Bovine Serum Albumin and Dextran present in a weight ratio of 100:4:1 suspended in 50 mM pH 6.0 phosphate buffer. Samples were vortexed, allowed to stand for 2 minutes and charcoal was precipitated by microcentrifugation @ full speed for 5 min. Aliquots of clear supernatant were transferred to counting vials containing liquid scintillant for measurement of radioactivity using Liquid Scintillation Spectroscopy.
Percentage inhibition values were calculated by comparison to this value.
as §1

[7] = Rattus norvegicus, read-out: EC50 (max set @ 100)
[8] = Rattus norvegicus, read-out: hippocampal slice EC50 (μM)
[9] = Table 1, synaptosomes, mean ± sem (n), read-out: [3H]BTX-B binding (synaptosomes), mean IC50
[10] = Table 4, tissue prep'n Homogenate, read-out: [3H]BTX-B binding Mean (IC50: μM)
[11] = Table 4, tissue prep'n Synaptosomes, read-out: [3H]BTX-B binding Mean (IC50: μM)
[12] = Table 5, Synaptosome data, read-out: [3H]BTX-B IC50
[13] = Table 1, mean ± sem (n), read-out: [14C] guanidine uptake (synaptosomes), mean IC50
[14] = Table 3, rat forebrain synaptosomes, read-out: [14C]guanidine flux Mean (IC50: μM)
[15] = Table 5, read-out: [14C]guanidine flux IC50
[16] = hERG / [3H]BTX-B selectivity, ratio of extrapolated hERG IC50 to [3H]BTX-B IC50 (synaptosomes)
[17] = hERG / [14C]guanidine flux selectivity, ratio of extrapolated hERG IC50 to [14C]guanidine flux IC50
[18] = read-out: [3H]methotrexate binding Inhibition (% @ assay conc'n), assay concentration 10 μM
[19] = read-out: [3H]methotrexate binding Inhibition (% @ assay conc'n), assay concentration 99 μM

T1 sequence (Q12809 whole entry): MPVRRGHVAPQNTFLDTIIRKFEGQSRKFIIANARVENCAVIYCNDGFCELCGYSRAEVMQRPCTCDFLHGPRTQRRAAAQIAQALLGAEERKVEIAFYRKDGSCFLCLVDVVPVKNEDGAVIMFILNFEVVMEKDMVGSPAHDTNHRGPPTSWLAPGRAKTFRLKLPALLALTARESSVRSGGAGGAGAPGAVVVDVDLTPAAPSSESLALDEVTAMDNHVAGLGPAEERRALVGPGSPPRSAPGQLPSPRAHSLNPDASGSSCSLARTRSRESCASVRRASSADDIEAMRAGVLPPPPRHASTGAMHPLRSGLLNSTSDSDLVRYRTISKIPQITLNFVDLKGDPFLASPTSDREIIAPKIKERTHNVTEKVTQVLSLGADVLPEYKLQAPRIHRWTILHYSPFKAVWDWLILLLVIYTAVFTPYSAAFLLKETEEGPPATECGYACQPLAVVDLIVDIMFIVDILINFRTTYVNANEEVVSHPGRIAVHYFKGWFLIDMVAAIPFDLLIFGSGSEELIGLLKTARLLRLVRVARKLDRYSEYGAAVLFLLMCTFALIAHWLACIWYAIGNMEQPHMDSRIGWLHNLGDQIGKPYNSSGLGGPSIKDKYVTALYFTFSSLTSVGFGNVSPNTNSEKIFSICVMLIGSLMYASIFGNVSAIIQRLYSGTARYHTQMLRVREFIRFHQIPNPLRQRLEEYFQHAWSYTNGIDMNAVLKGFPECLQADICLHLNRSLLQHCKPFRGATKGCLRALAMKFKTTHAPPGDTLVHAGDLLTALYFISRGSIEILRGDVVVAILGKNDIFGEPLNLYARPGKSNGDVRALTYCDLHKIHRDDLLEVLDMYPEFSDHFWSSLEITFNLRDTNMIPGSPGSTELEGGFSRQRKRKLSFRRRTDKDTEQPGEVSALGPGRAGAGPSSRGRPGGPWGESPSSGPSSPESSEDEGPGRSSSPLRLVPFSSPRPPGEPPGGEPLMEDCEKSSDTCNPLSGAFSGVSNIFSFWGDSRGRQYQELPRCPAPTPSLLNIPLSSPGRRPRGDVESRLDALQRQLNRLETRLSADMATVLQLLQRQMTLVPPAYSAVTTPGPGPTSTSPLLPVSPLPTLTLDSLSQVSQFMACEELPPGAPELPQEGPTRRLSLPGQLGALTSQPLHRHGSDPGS

Cn1nc(-c2ccc(Cl)cc2Cl)c(N)nc1=N (as salt: methanesulfonate) [Example 45, 5(3)-Amino-6-(2,4-dichlorophenyl)-2,3(2,5)-dihydro-3(5)-imino-2-methyl-1,2,4-triazine methanesulfonate]
melting point: 283 to 285 °C

Cn1nc(-c2ccccc2)c(N)nc1=N (as salt: methanesulfonate) [Example 46, 5(3)-Amino-6-phenyl-2,3(2,5)-dihydro-3(5)-imino-2-methyl-1,2,4-triazine methanesulfonate]
melting point: 230 to 232 °C

CCn1nc(-c2ccccc2)c(N)nc1=N (as salt: methanesulfonate) [Example 47, 5(3)-Amino-6-phenyl-2,3(2,5)-dihydro-3(5)-imino-2-ethyl-1,2,4-triazine methanesulfonate]
melting point: 230 to 232 °C

Cn1nc(-c2cc(Cl)ccc2Cl)c(N)nc1=N (as salt: methanesulfonate) [Example 48, 5(3)-Amino-6-(2,5-dichlorophenyl)-2,3(2,5)-dihydro-3(5)-imino-2-methyl-1,2,4-triazine methanesulfonate]
melting point: 297 to 298 °C

Nc1nnc(-c2cccc(Cl)c2Cl)c(N)n1 [Example 1, 5(3)-amino-6-(2,3-dichlorophenyl)-2,3(2,5)-dihydro-3(5)-imino-1,2,4-triazine, reference compound]
EC50 [1, 7]: 33.1 µM
Emax ([1]; Rattus norvegicus): 79%
EC50 [1, 8]: 30.2 µM
IC50 (sodium channel [2]; [9]): 82.6 ± 2.3 µM
IC50 (sodium channel [2]; [10]): 97.9 µM
IC50 (sodium channel [2]; [11]): 76.6 µM
IC50 (sodium channel [2]; [12]): 76.6 µM
IC50 (sodium channel [3]; [13]): 186 ± 26.5 µM
IC50 (sodium channel [3]; [14]): 209 µM
IC50 (sodium channel [3]; [15]): 209 µM
pIC50 (uptake of [14C]guanidine) (sodium channel [3]; Table 8, listed as Lamotrigine): 3.75 ± 0.13 and 3.68 ± 0.27
IC50 (sodium channel [3]; Table 8, listed as Lamotrigine, read-out: IC50 (μM) (uptake of [14C]guanidine)): 178 µM and 209 µM

Cn1nc(-c2cccc(Cl)c2Cl)c(N)nc1=N [Example 2, 5-amino-6-(2,3-dichlorophenyl)-2,3-dihydro-3-imino-2-methyl-1,2,4-triazine]
IC50 (hERG potassium channel [4]): 73.3 µM
EC50 [1, 7]: 37.4 µM
Emax ([1]; Rattus norvegicus): 98 ± 5%
EC50 [1, 8]: 36.3 µM
IC50 (sodium channel [2]; [9]): 7.4 ± 0.4 µM
IC50 (sodium channel [2]; [10]): 2.5 µM
IC50 (sodium channel [2]; [11]): 7.2 µM
IC50 (sodium channel [2]; [12]): 7.2 µM
inhibition at 10 µM (hERG potassium channel [5]): 12%
selectivity ratio (hERG potassium channel [5]; [16]): 10.2
selectivity ratio (hERG potassium channel [5]; [17]): 2
IC50 (sodium channel [3]; [13]): 35.9 ± 1.8 µM
IC50 (sodium channel [3]; [14]): 35.9 µM
IC50 (sodium channel [3]; [15]): 35.9 µM
inhibition at 10 µM [6, 18]: 0%
inhibition at 99 µM [6, 19]: -3%

CCn1nc(-c2cccc(Cl)c2Cl)c(N)nc1=N [Example 3, 5(3)-Amino-6-(2,3-dichlorophenyl)-2,3(2,5)-dihydro-3(5)-imino-2-ethyl-1,2,4-triazine]
Max Protection (% v TTX) ([1]; compared with the effect of 1 μM TTX = 100% protection): 87.0 % v TTX
EC50 ([1]; read-out: EC50 (max set @ 100), data re-computed setting max @ 100%): 20 µM
EC50 ([1]; read-out: hippocampal slice EC50, protection of ATP after iodoacetate): 16 µM
IC50 (sodium channel [2]; [10]): 0.9 µM
IC50 (sodium channel [2]; [11]): 3.7 µM
IC50 (sodium channel [3]; [14]): 6.4 µM
[3H]methotrexate binding Inhibition (% @ assay conc'n) ([6]; assay concentration 10 μM): 0%
[3H]methotrexate binding Inhibition (% @ assay conc'n) ([6]; assay concentration 99 μM): 1%

CCCn1nc(-c2cccc(Cl)c2Cl)c(N)nc1=N [Example 6, 5(3)-Amino-6-(2,3-dichlorophenyl)-2,3(2,5)-dihydro-3(5)-imino-2-propyl-1,2,4-triazine]
IC50 (hERG potassium channel [4]): 2.8 µM
EC50 [1, 7]: 14.5 µM
Emax ([1]; Rattus norvegicus): 81 ± 27%
EC50 [1, 8]: 10.4 µM
IC50 (sodium channel [2]; [10]): 0.5 µM
IC50 (sodium channel [2]; [11]): 3.6 µM
IC50 (sodium channel [2]; [12]): 2.2 µM
inhibition at 10 µM (hERG potassium channel [5]): 78%
selectivity ratio (hERG potassium channel [5]; [16]): 1.3
selectivity ratio (hERG potassium channel [5]; [17]): 0.6
IC50 (sodium channel [3]; [14]): 2.8 µM
IC50 (sodium channel [3]; [15]): 4.8 µM
inhibition at 10 µM [6, 18]: 0%
inhibition at 99 µM [6, 19]: 2%

CC(C)Cn1nc(-c2cccc(Cl)c2Cl)c(N)nc1=N [Example 7, 5(3)-Amino-6-(2,3-dichlorophenyl)-2,3(2,5)-dihydro-3(5)-imino-2-isobutyl-1,2,4-triazine methanesulfonate]
Emax ([1]; Rattus norvegicus): 47 ± 3%
EC50 [1, 8]: 1.3 µM
IC50 (sodium channel [2]; [11]): 1 µM
IC50 (sodium channel [3]; [14]): 2.9 µM
inhibition at 10 µM [6, 18]: -4%
inhibition at 99 µM [6, 19]: -2%

CCCCn1nc(-c2cccc(Cl)c2Cl)c(N)nc1=N [Example 8, 5(3)-Amino-6-(2,3-dichlorophenyl)-2,3(2,5)-dihydro-3(5)-imino-2-butyl-1,2,4-triazine]
Emax ([1]; Rattus norvegicus): 46%
EC50 [1, 8]: 10 µM
IC50 (sodium channel [2]; [11]): 1.7 µM
IC50 (sodium channel [3]; [14]): 2.1 µM
inhibition at 10 µM [6, 18]: -4%
inhibition at 99 µM [6, 19]: -2%

N=c1nc(N)c(-c2cccc(Cl)c2Cl)nn1Cc1ccccc1 [Example 9, 5(3)-Amino-6-(2,3-dichlorophenyl)-2,3(2,5)-dihydro-3(5)-imino-2-phenylmethyl-1,2,4-triazine hemi-methanesulfonate]
EC50 [1, 8]: > 30 µM
IC50 (sodium channel [2]; [11]): 2.2 µM
IC50 (sodium channel [3]; [14]): 4.8 µM
inhibition at 10 µM [6, 18]: 2%
inhibition at 99 µM [6, 19]: -4%

Nc1nnc(-c2cc(Cl)cc(Cl)c2Cl)c(N)n1 [Example 31, 6-(2,3,5-trichlorophenyl)-1,2,4-triazine-3,5-diamine]
IC50 (hERG potassium channel [4]): 66.9 µM
EC50 [1, 7]: 2.2 µM
Emax ([1]; Rattus norvegicus): 91 ± 4%
EC50 [1, 8]: 1.8 µM
IC50 (sodium channel [2]; [11]): 21.9 µM
IC50 (sodium channel [2]; [12]): 21.9 µM
inhibition at 10 µM (hERG potassium channel [5]): 13%
selectivity ratio (hERG potassium channel [5]; [16]): 3.1
selectivity ratio (hERG potassium channel [5]; [17]): 4.1
IC50 (sodium channel [3]; [14]): 16.2 µM
IC50 (sodium channel [3]; [15]): 16.2 µM
IC50 [6]: 41 ± 4.7 µM

Cn1nc(-c2cc(Cl)cc(Cl)c2Cl)c(N)nc1=N [Example 32, 5(3)-Amino-6-(2,3,5-trichlorophenyl)-2,3(2,5)-dihydro-3(5)-imino-2-methyl-1,2,4-triazine]
IC50 (hERG potassium channel [4]): 20.3 µM
Emax ([1]; Rattus norvegicus): 65 ± 7%
EC50 [1, 8]: 5.9 µM
IC50 (sodium channel [2]; [11]): 1.9 µM
IC50 (sodium channel [2]; [12]): 1.9 µM
inhibition at 10 µM (hERG potassium channel [5]): 33%
selectivity ratio (hERG potassium channel [5]; [16]): 10.7
selectivity ratio (hERG potassium channel [5]; [17]): 3.2
IC50 (sodium channel [3]; [14]): 6.4 µM
IC50 (sodium channel [3]; [15]): 6.4 µM
IC50 [6]: > 250 µM

CCCn1nc(-c2cc(Cl)cc(Cl)c2Cl)c(N)nc1=N [Example 34, 5(3)-Amino-6-(2,3,5-trichlorophenyl)-2,3(2,5)-dihydro-3(5)-imino-2-propyl-1,2,4-triazine]
IC50 (hERG potassium channel [4]): 6.1 µM
Emax ([1]; Rattus norvegicus): 37%
EC50 [1, 8]: 9.8 µM
IC50 (sodium channel [2]; [11]): 0.5 µM
IC50 (sodium channel [2]; [12]): 0.5 µM
inhibition at 10 µM (hERG potassium channel [5]): 62%
selectivity ratio (hERG potassium channel [5]; [16]): 12.3
selectivity ratio (hERG potassium channel [5]; [17]): 4.7
IC50 (sodium channel [3]; [14]): 1.3 µM
IC50 (sodium channel [3]; [15]): 1.3 µM
IC50 [6]: > 300 µM

CN1CCN(c2ncc(-c3cc(Cl)cc(Cl)c3Cl)c(N)n2)CC1 [Sipatrigine, reference compound]
IC50 (hERG potassium channel [4]): 1.5 µM
EC50 [1, 7]: 12.6 µM
Emax ([1]; Rattus norvegicus): 90%
EC50 [1, 8]: 10.7 µM
inhibition at 10 µM (hERG potassium channel [5]; hERG % inhibition @ 10 μM): 87%
inhibition at 10 µM [6, 18]: 0%
inhibition at 198 µM ([6]; read-out: [3H]methotrexate binding Inhibition (% @ assay conc'n), assay concentration 198 μM): -6%
